Results from patent publication US10656162B2, “Use of glu-tubulin as a biomarker of drug response to furazanobenzimidazoles” (Basilea Pharmaceutica AG, priority 2011, dated 2020).

How the values were obtained:
[1] = test system: LXFE 211 Patient-derived lung tumour; test: Colony outgrowth assay, LXFE 211; type: cell-based, human; design: key to Response to compound (BAL27862, paclitaxel, vinblastine): Sensitive: BAL27862-sensitive tumour cells have IC70 values in the low nanomolar range; Resistant: BAL27862-resistant tumour cells are defined by IC70 values >600 nanomolar; details: for Response to compound (BAL27862, paclitaxel, vinblastine): LXFE 211, lung cancer, ex vivo colony outgrowth
Method: (§1) Single cell suspensions of patient-derived tumour xenografts (maintained in nude mice) were prepared. For colony outgrowth assays, cells were plated in soft agar in 24-well plates according to the assay introduced by Hamburger & Salmon (Primary bioassay of human tumour stem cells, Science, 1977.197:461-463). 2×10^4-6×10^4 cells in 0.2 mL medium containing 0.4% agar were plated out on a bottom layer of 0.75% agar. Test compounds were applied in 0.2 mL culture medium. Every 24-well plate contained untreated controls and samples in triplicates. Cultures were incubated at 37° C. and 7.5% CO2 for 5-28 days. 24 hours prior to analysis, vital colonies were stained with a solution of metabolisable tetrazolium salt (Alley M C et al, Life Sci. 1982, 31:3071-3078) and were counted with an automatic image analysis system (Omnicon 3600, Biosys GmbH).
(§2) Relative drug effects were expressed by the ratio of the mean number of colonies in the treated wells and the control wells. IC70-values were determined by plotting compound concentrations versus relative colony counts.

[2] = test system: experimental, solid tumour xenograft models; test: Solid tumour xenograft models; details: in vivo
[3] = test system: SKBR3 breast cancer cells; test: Immunofluorescent staining of microtubules, SKBR3; type: cell-based, human; details: SKBR3, 24 hours, 50 nM BAL27862
Method: (§3) A549 human non-small cell lung cancer (NSCLC, ATCC reference number CCL-185) cells, HeLa cervical cancer cells (ATCC reference number CCL-2) and SKBR3 breast carcinoma cells (ATCC reference number HTB-30) were seeded at densities of 50% on round microscope coverslips and cultured for 24 hours in RPMI-1640 containing 10% FCS (also referred to as FBS) at 37° C., 5% CO2. Compounds to be tested were dissolved in DMSO. The cell culture medium was replaced with medium containing the diluted compound(s) (paclitaxel, vinblastine, colchicine and nocodazole were purchased from Sigma-Aldrich) or vehicle. After treatment for the times indicated in the Brief Description of the Figures, coverslips were washed and cells were fixed in methanol/acetone (1:1) for 5 minutes at room temperature and subsequently incubated in blocking buffer (0.5% BSA and 0.1% TX-100 in PBS) for 30 minutes at room temperature. Specimens were then incubated with anti-alpha-tubulin (Sigma, 1:2000) for 1 hour at room temperature in blocking buffer. After several washing steps cells were incubated with AlexaFluor-488 goat-anti-mouse IgG (Molecular Probes, 1:3000) for 1 hour at room temperature followed by several washing steps with blocking buffer. […]

[4] = test system: HeLa cervical cancer cells; test: Immunofluorescent staining of microtubules, HeLa; type: cell-based, human; details: 24 hours, 50 nM BAL27862
Method: as §3

[5] = test system: LXFE 397 Patient-derived lung tumour; test: Colony outgrowth assay, LXFE 397; type: cell-based, human
Method: as §1, §2

A549 NSCLC cells = test: Immunofluorescent staining of microtubules, A549; type: cell-based, human; details: for Microtubule phenotype of mitotic or G2/M arrested cells: A549, 24 hours, 50 nM BAL27862, 80 nM Compound B, 20 nM Compound C, anti-alpha-tubulin staining
Method: A549 human non-small cell lung cancer (NSCLC, ATCC reference number CCL-185) cells, HeLa cervical cancer cells (ATCC reference number CCL-2) and SKBR3 breast carcinoma cells (ATCC reference number HTB-30) were seeded at densities of 50% on round microscope coverslips and cultured for 24 hours in RPMI-1640 containing 10% FCS (also referred to as FBS) at 37° C., 5% CO2. Compounds to be tested were dissolved in DMSO. The cell culture medium was replaced with medium containing the diluted compound(s) (paclitaxel, vinblastine, colchicine and nocodazole were purchased from Sigma-Aldrich) or vehicle. After treatment for the times indicated in the Brief Description of the Figures, coverslips were washed and cells were fixed in methanol/acetone (1:1) for 5 minutes at room temperature and subsequently incubated in blocking buffer (0.5% BSA and 0.1% TX-100 in PBS) for 30 minutes at room temperature. Specimens were then incubated with anti-alpha-tubulin (Sigma, 1:2000) for 1 hour at room temperature in blocking buffer. After several washing steps cells were incubated with AlexaFluor-488 goat-anti-mouse IgG (Molecular Probes, 1:3000) for 1 hour at room temperature followed by several washing steps with blocking buffer. Specimens were then mounted with ProLong Gold antifade (Molecular Probes, sealed with nail polish and examined with a Leica immunofluorescence microscope. Images were captured with a cooled CCD-camera and processed by ImageJ software.

[6] = test system: H460 BAL27862-resistant cell line variant; test: Crystal Violet assay, BAL27862-resistant H460 versus parental line; type: cell-based, human; details: for Resistance factors (ratio of IC50 BAL27862-resistant cell line variant and IC50 parental cell line): H460, 72 hours, Crystal Violet
Excerpt: (§4) BAL27862-resistant sublines of human non-small cell lung cancer (H460 ATCC reference HTB-177; A549 ATCC reference CCL-185), ovarian cancer (SKOV3 ATCC reference HTB-77) lines were generated by long-term selection in complete cell culture medium (RPMI-1640 containing 10% FCS; Sigma-Aldrich) by stepwise increasing concentrations of BAL27862. […] The resistant sublines were expanded at the highest tolerated BAL27862 concentration and subsequently frozen and stored in liquid nitrogen.
(§5) After medium was removed, cells were fixed and stained by adding 50 μl Crystal Violet Staining (0.2% Crystal Violet in 50% Methanol) per well. Plates were incubated for 1 hour at room temperature. Subsequently the stain was decanted and plates were washed 4 times with double-distilled water. Plates were air-dried for several hours. Stain was dissolved by adding 100 μl buffer (0.1 M Tris pH 7.5, 0.2% SDS, 20% Ethanol) per well and shaking the plates. Absorbance at 590 nm was measured using a SpectraMax M2e plate reader (Molecular Devices). Anti-proliferative IC50 values were calculated from concentration response curves using GraphPad Prism software. Resistance factors were calculated as a ratio of BAL27862 IC50 in the resistant line variant versus the IC50 in the parental line.

[7] = test system: CXF 243 patient-derived colorectal tumour; test: Colony outgrowth assay, CXF 243; type: cell-based, human; design: key to Response to compound (BAL27862, paclitaxel, vinblastine): Sensitive: BAL27862-sensitive tumour cells have IC70 values in the low nanomolar range; Resistant: BAL27862-resistant tumour cells are defined by IC70 values >600 nanomolar; details: for Response to compound (BAL27862, paclitaxel, vinblastine): CXF 243, colorectal cancer, ex vivo colony outgrowth
Method: as §1, §2

SKOV3 resistant 2 = test: Crystal Violet assay, SKOV3 resistant 2 versus parental line; type: cell-based, human; details: for Resistance factors (ratio of IC50 BAL27862-resistant cell line variant and IC50 parental cell line): SKOV3 resistant 2, 72 hours, Crystal Violet
Excerpt: as §4, §5

[8] = test system: P-gp pump over-expressing models; test: Models over-expressing the P-gp pump; type: cell-based; details: models tested in vitro; also human mammary tumour xenografts
[9] = test system: CXF 1103 patient-derived colorectal tumour; test: Colony outgrowth assay, CXF 1103; type: cell-based, human; details: for Response to compound (BAL27862, paclitaxel, vinblastine): CXF 1103, colorectal cancer, ex vivo colony outgrowth
Method: as §1, §2

SKOV3 resistant 1 = test: Crystal Violet assay, SKOV3 resistant 1 versus parental line; type: cell-based, human; details: for Resistance factors (ratio of IC50 BAL27862-resistant cell line variant and IC50 parental cell line): SKOV3 resistant 1, 72 hours, Crystal Violet
Excerpt: as §4, §5

[10] = test system: MEXF 1341 patient-derived melanoma; test: Colony outgrowth assay, MEXF 1341; type: cell-based, human; design: key to Response to compound (BAL27862, paclitaxel, vinblastine): Sensitive: BAL27862-sensitive tumour cells have IC70 values in the low nanomolar range; Resistant: BAL27862-resistant tumour cells are defined by IC70 values >600 nanomolar; details: for Response to compound (BAL27862, paclitaxel, vinblastine): MEXF 1341, melanoma, ex vivo colony outgrowth
Method: as §1, §2

[11] = test system: MEXF 276 patient-derived melanoma; test: Colony outgrowth assay, MEXF 276; type: cell-based, human; details: for Response to compound (BAL27862, paclitaxel, vinblastine): MEXF 276, melanoma, ex vivo colony outgrowth
Method: as §1, §2

[12] = test system: A549 BAL27862-resistant cell line variant; test: Crystal Violet assay, BAL27862-resistant A549 versus parental line; type: cell-based, human; details: for Resistance factors (ratio of IC50 BAL27862-resistant cell line variant and IC50 parental cell line): A549, 72 hours, Crystal Violet
Excerpt: as §4, §5

| SMILES | Response to compound (BAL27862, paclitaxel, vinblastine) [1] | Microtubule phenotype of mitotic or G2/M arrested cells (A549 NSCLC cells) | Resistance factors (ratio of IC50 BAL27862-resistant cell line variant and IC50 parental cell line) [6] | Resistance factors (ratio of IC50 BAL27862-resistant cell line variant and IC50 parental cell line) (SKOV3 resistant 2) | Response to compound (BAL27862, paclitaxel, vinblastine) [9] | Resistance factors (ratio of IC50 BAL27862-resistant cell line variant and IC50 parental cell line) (SKOV3 resistant 1) | Resistance factors (ratio of IC50 BAL27862-resistant cell line variant and IC50 parental cell line) [12] | further results |
| --- | --- | --- | --- | --- | --- | --- | --- | --- |
| N#CCCNc1nonc1-c1nc2ccccc2n1CC(=O)c1ccc(N)cc1 [BAL27862, 3-(4-{1-[2-(4-Amino-phenyl)-2-oxo-ethyl]-1H-benzoimidazol-2-yl}-furazan-3-ylamino)-propionitrile] | Sensitive | multiple dot-like structures are visible | 5.3 | 11.6 | Sensitive | 7.6 | 3.0 | IC70 BAL27862 ([1]; LXFE 211, 70% growth inhibition versus controls): 21 nM; Activity in tumour xenograft models [2]: activity across a broad panel of experimental, solid tumour xenograft models; Microtubule phenotype of mitotic or G2/M arrested cells [3]: highly reproducible and distinct microtubule phenotype; Microtubule phenotype of mitotic or G2/M arrested cells [4]: highly reproducible and distinct microtubule phenotype; IC70 BAL27862 ([5]; LXFE 397, 70% growth inhibition versus controls): >3500 nM; Response to compound (BAL27862, paclitaxel, vinblastine) ([5]; LXFE 397, lung cancer, ex vivo colony outgrowth): Resistant (BAL27862-resistant tumour cells are defined by IC70 values >600 nanomolar); Microtubule phenotype on combination treatment (A549 NSCLC cells; A549, 24 hours vinblastine, colchicine, paclitaxel or nocodazole with the final 4 hours including BAL27862): disruption of the microtubule structures; Microtubule phenotype of mitotic or G2/M arrested cells (A549 NSCLC cells; listed as compound A): highly reproducible and distinct microtubule phenotype; BAL27862 resistance factors versus parental lines ([6]; H460, based on IC50 determinations): 5.3 fold; IC70 BAL27862 ([7]; CXF 243, 70% growth inhibition versus controls): 696 nM; BAL27862 resistance factors versus parental lines (SKOV3 resistant 2; SKOV3 resistant 2, based on IC50 determinations): 11.6 fold; Activity with over-expression of the P-gp pump [8]: not affected; IC70 BAL27862 ([9]; CXF 1103, 70% growth inhibition versus controls): 22 nM; BAL27862 resistance factors versus parental lines (SKOV3 resistant 1; SKOV3 resistant 1, based on IC50 determinations): 7.6 fold; IC70 BAL27862 ([10]; MEXF 1341, 70% growth inhibition versus controls): 25 nM; Response to compound (BAL27862, paclitaxel, vinblastine) [10]: Sensitive; IC70 BAL27862 ([11]; MEXF 276, 70% growth inhibition versus controls): >3500 nM; Response to compound (BAL27862, paclitaxel, vinblastine) [11]: Resistant (BAL27862-resistant tumour cells are defined by IC70 values >600 nanomolar); BAL27862 resistance factors versus parental lines ([12]; A549, based on IC50 determinations): 3.0 fold |
| COc1cc2c(c(OC)c1OC)-c1ccc(OC)c(=O)cc1[C@@H](NC(C)=O)CC2 [Colchicine, colchicine] | – | – | 1.6 | 2.8 | – | 2.0 | 0.9 | – |
| Nc1ccc(C(=O)Cn2c(-c3nonc3N)nc3ccccc32)cc1 [Compound B, 2-[2-(4-Amino-furazan-3-yl)-benzoimidazol-1-yl]-1-(4-amino-phenyl)-ethanone] | – | highly reproducible and distinct microtubule phenotype | – | – | – | – | – | – |
| N#CCCNc1nonc1-c1nc2ccccc2n1CC(=O)c1ccc(N)nc1 [Compound C, 3-(4-{1-[2-(6-Amino-pyridin-3-yl)-2-oxo-ethyl]-1H-benzoimidazol-2-yl}-furazan-3-ylamino)-propionitrile] | – | highly reproducible and distinct microtubule phenotype | – | – | – | – | – | – |
| COC(=O)Nc1nc2ccc(C(=O)c3cccs3)cc2[nH]1 [Nocodazole, nocodazole] | – | – | 1.3 | 3.9 | – | 3.6 | 1.6 | – |
| CC(=O)O[C@H]1C(=O)[C@@]2(C)[C@H]([C@H](OC(=O)c3ccccc3)[C@]3(O)C[C@H](OC(=O)[C@H](O)[C@@H](NC(=O)c4ccccc4)c4ccccc4)C(C)=C1C3(C)C)[C@]1(OC(C)=O)CO[C@@H]1C[C@@H]2O [Paclitaxel, paclitaxel] | Resistant (BAL27862-resistant tumour cells are defined by IC70 values >600 nanomolar) | – | 0.3 | 0.5 | Resistant (BAL27862-resistant tumour cells are defined by IC70 values >600 nanomolar) | 0.4 | 0.06 | Response to compound (BAL27862, paclitaxel, vinblastine) [7]: Resistant (BAL27862-resistant tumour cells are defined by IC70 values >600 nanomolar) |
| CC[C@]1(O)C[C@@H]2CN(CCc3c([nH]c4ccccc34)[C@@](C(=O)OC)(c3cc4c(cc3OC)N(C)[C@H]3[C@@](O)(C(=O)OC)[C@H](OC(C)=O)[C@]5(CC)C=CCN6CC[C@]43[C@@H]65)C2)C1 [Vinblastine, vinblastine, reference compound] | Sensitive | – | 4.6 | – | Resistant (BAL27862-resistant tumour cells are defined by IC70 values >600 nanomolar) | 15.7 | 2.3 | Response to compound (BAL27862, paclitaxel, vinblastine) [7]: Sensitive; Response to compound (BAL27862, paclitaxel, vinblastine) [10]: Sensitive; Response to compound (BAL27862, paclitaxel, vinblastine) [11]: Sensitive |
